This test addresses xanthine oxidase (Bos taurus, UniProt P80457). Briefly: in vitro xanthine oxidase inhibition (hypoxanthine substrate, absorbance at 292, pH 7.4 buffer; Baker et al procedure). The note with it: hypoxanthine 6 × 10^-5 M solution, 1 minute; for inhibition at 20 µM: test compound 2 × 10^-5 M. Type of test: biochemical. As for the experimental part:
The procedure used employed the principals described in J. Pharm.
A reference cuvette is filled with 0.05M pH 7.4 buffer. For the control, mix quickly in a cuvette 2 ml. hypoxanthine solution (6 × 10^-^5 M), 2 ml.

xanthine oxidase, sequence (P80457 whole entry): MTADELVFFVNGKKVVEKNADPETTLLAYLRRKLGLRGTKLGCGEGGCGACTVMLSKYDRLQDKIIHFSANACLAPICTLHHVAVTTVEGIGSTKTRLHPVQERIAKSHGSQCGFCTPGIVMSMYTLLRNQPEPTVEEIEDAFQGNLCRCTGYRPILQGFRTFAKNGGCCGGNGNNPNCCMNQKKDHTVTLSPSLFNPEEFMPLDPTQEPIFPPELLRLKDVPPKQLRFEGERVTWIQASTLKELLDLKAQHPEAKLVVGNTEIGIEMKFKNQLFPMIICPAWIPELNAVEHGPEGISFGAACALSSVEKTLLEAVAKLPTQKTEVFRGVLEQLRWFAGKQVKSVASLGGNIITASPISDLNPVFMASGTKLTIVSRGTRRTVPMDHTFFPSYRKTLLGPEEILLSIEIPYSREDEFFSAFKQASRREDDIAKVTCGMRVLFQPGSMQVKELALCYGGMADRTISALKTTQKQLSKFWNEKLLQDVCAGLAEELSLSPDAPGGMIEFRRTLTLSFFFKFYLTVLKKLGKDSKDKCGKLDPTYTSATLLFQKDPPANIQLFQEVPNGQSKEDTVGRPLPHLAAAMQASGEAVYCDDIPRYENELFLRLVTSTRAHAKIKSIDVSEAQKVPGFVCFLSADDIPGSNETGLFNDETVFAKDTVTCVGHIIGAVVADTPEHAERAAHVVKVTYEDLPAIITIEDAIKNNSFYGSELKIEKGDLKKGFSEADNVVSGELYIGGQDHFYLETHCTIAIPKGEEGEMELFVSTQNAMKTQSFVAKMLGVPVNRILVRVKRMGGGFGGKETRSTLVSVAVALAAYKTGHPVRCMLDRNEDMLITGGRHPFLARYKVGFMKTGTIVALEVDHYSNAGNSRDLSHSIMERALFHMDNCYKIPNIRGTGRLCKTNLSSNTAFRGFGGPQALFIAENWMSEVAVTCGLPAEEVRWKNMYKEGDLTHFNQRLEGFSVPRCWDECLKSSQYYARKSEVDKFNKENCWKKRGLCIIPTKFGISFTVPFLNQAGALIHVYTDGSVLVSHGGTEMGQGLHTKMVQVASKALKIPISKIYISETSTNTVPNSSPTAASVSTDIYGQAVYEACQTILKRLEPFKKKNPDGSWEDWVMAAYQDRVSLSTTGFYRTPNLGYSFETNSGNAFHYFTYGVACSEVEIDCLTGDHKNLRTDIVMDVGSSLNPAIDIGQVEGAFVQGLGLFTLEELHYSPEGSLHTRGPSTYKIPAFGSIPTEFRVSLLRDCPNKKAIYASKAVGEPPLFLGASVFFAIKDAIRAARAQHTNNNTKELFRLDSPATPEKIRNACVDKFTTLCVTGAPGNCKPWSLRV

What is called inhibition is the share of the control response that was lost under treatment. Read a low inhibition as a response near the control. The compound `CN(C)S(=O)(=O)c1cc2c(cc1Cl)N=C(C(Cl)(Cl)Cl)NS2(=O)=O` had an inhibition at 20 µM of 5%.
In turn, `NS(=O)(=O)c1cc2c(cc1Cl)N=C(CCl)NS2(=O)=O` returned an inhibition at 20 µM of 24%.
On the same count and under the same terms, under `NS(=O)(=O)c1cc2c(cc1Cl)NC(C(Cl)(Cl)Cl)NS2(=O)=O` (centres unmarked) stands 45%; under `CCCN(CCC)S(=O)(=O)c1cc2c(c(Cl)c1Cl)N=C(C(Cl)Cl)NS2(=O)=O`, 21%.
Regarding `CN(C)S(=O)(=O)c1cc2c(cc1Cl)N=C(C(C)(Cl)Cl)NS2(=O)=O`, at 20 µM the inhibition was 13%.
On the same count and under the same terms, under `CCCN(CCC)S(=O)(=O)c1cc2c(cc1Cl)N=C(C(Cl)Cl)NS2(=O)=O` stands 12%; under `CCCN(CCC)S(=O)(=O)c1cc2c(c(Cl)c1Cl)N=C(CCl)NS2(=O)=O`, 33%.
Same read-out and setting: with `CNS(=O)(=O)c1cc2c(cc1Cl)N=C(CCl)NS2(=O)=O` the figure was 78%; with `CCNS(=O)(=O)c1cc2c(cc1Cl)NC(C(Cl)(Cl)Cl)NS2(=O)=O` (centres unmarked), 63%; with `CNS(=O)(=O)c1cc2c(cc1Cl)NC(C(Cl)(Cl)Cl)NS2(=O)=O` (centres unmarked), 16%.
Under “1 min, test compound at 2 × 10^-6 (footnote 1)”, `CN(C)S(=O)(=O)c1cc2c(cc1Cl)N=C(CCl)NS2(=O)=O` [3-Chloromethyl-6-chloro-7-N,N-dimethylsulfamoyl-1,2,4-benzothiadiazine-1,1-dioxide] displayed an inhibition at 2 µM of 52%.
As for `CCN(CC)S(=O)(=O)c1cc2c(cc1Cl)N=C(C(Cl)(Cl)Cl)NS2(=O)=O`, the inhibition at 20 µM came to 3%.
Take `CCN(CC)S(=O)(=O)c1cc2c(cc1Cl)N=C(CCl)NS2(=O)=O`: the inhibition at 20 µM stood at 75%.
Same read-out and setting: with `CCCN(CCC)S(=O)(=O)c1cc2c(c(Cl)c1Cl)N=C(C(Cl)(Cl)Cl)NS2(=O)=O` the figure was 26%.
Still for that read-out and setting: under `C=CCN(CC=C)S(=O)(=O)c1cc2c(cc1Cl)NC(C(Cl)(Cl)Cl)NS2(=O)=O` (centres unmarked) stands 6%; under `CCCN(CCC)S(=O)(=O)c1cc2c(cc1Cl)N=C(CCl)NS2(=O)=O`, 69%; under `CCCN(CCC)S(=O)(=O)c1cc2c(cc1Cl)NC(C(Cl)(Cl)Cl)NS2(=O)=O` (centres unmarked) [3-Trichloromethyl-6-chloro-7-N,N-di-n-propylsulfamoyl-3,4-dihydro-1,2,4-benzothiadiazine-1,1-dioxide], 6%.
Still for that read-out and setting: under `C=CCN(CC=C)S(=O)(=O)c1cc2c(cc1Cl)N=C(CCl)NS2(=O)=O` stands 53%; under `CN(C)S(=O)(=O)c1cc2c(cc1Cl)N=C(C(Cl)Cl)NS2(=O)=O`, 11%; under `CCCN(CCC)S(=O)(=O)c1cc2c(cc1Cl)N=C(CBr)NS2(=O)=O`, 30%.
In the case of `CCNS(=O)(=O)c1cc2c(cc1Cl)N=C(C(Cl)Cl)NS2(=O)=O`, testing at 20 µM gave an inhibition of 6%.
In turn, `CCCN(CCC)S(=O)(=O)c1cc2c(cc1Cl)N=C(C(Cl)(Cl)Cl)NS2(=O)=O` showed an inhibition at 20 µM of 14%.
On the same count and under the same terms, with `CCN(CC)S(=O)(=O)c1cc2c(cc1Cl)N=C(C(Cl)Cl)NS2(=O)=O` the figure was 18%.

Values taken from patent publication US3969518A, “Inhibiting xanthine oxidase with 3-haloalkyl substituted benzothiadiazine-1,1-dioxides” (Merck & Co., Inc., priority 1972, dated 1976).
